Data as given in EP1510220B1 (priority 1993, dated 1994).

Legend:
[1] = test system: TGF-beta1 mRNA; test: cells; details: Rattus norvegicus, 24 h, read-out: increase of TGF-beta1 mRNA
[2] = test system: human ED cultures; test: Proliferation of enzyme-dispersed (ED) human VSMC cultures; format: cell-based; details: 96 h, cell counting
Experimental: (§1) Human aortic VSMC cultures. Adult human VSMC were obtained from 6 transplant donors (either sex, age range from 3 to 54 years) using the enzyme dispersal or explant technique. In one case, the same donor (a person) was used to establish both an enzyme-dispersed (ED) and explant-derived (EX) cell culture. Prior to enzyme-dispersion or explanting treatment, human aortas were obtained within 18 h of death. The endothelium layer was removed with a scalpel blade and strips of smooth muscle cells (tunica media) were removed with forceps and chopped into small pieces (1 mm^3).
(§2) ED Cultures. The aortic pieces were washed once with serum-free Hanks Balanced Salt Solution, then enzyme-dispersed with collagenase and elastase, as described in Example 7. The cells were plated at an initial density of 1.5 x 10^5 cells/cm^2 and incubated in a humidified atmosphere at 37°C in 5% CO2 in air. The cells were subcultured every 6-7 days (at stationary phase) by releasing them with trypsin/EDTA and diluting them 1:1.5 in D-MEM + 10% FCS. Subcultured ED cells were cultured with D-MEM + 20% FCS 24 h after plating, and thereafter at 48 h intervals.
(§3) Cell counting, DNA synthesis assays and assays for total and active TGF-beta were performed as described in Example 7.

[3] = as above; format: cell-based; details: human, aortic vsmc ed cultures, cell counting, read-out: concentrations that caused cell death
Experimental: as §1, §2, §3

[4] = test system: Balloon traumatized pig arteries; details: in vivo
[5] = test system: Vascular smooth muscle cells (BO54); test: Scratch-migration assay with morphological toxicity grading; format: cell-based, baboon; parameters: key to Migration Grade in the Cleared Area of the Well / Migration Grade in an Undisturbed Region of the Well: - = no migration; +1 = minimal; +2 = mild; +3 = moderate; +4 = marked (maximum density; limit of cell contact inhibition) migration
Experimental: Scratch assays to determine the extent of smooth muscle cell migration inhibition by cytochalasin B were performed in accordance with the following protocol:
Vascular smooth muscle cells (BO54) were derived from explants of baboon aortic smooth muscle, as described in Example 1. The cells were grown in flat bottom, six well tissue culture plates, which hold about 5 ml of medium. The vascular smooth muscle cells were plated at 200,000 cells/well and placed at 37°C in a humidified 5% CO2 incubator for 18 hours. The wells were then scratched with a sterile portion of a single edge razor blade that was held by clamp or pliers and was brought aseptically into contact with the bottom of the well at a 90° angle. The cells from a small area along the scratch were removed by a sterile cotton tipped applicator while the blade was in contact with the bottom of the well. After incubation, the presence of cells in the "scratched" area is indicative of cell migration across the scratch line.
Briefly, a stock solution of cytochalasin B (Sigma Chemical Co.) in dimethyl sulfoxide (DMSO) at 1 mg/ml was prepared. Test dilutions of cytochalasin B or control medium were added. Each experiment included two sets of plates: • A set: Test agent exposure for 1, 3, 6, 8 and 10 days only; and • B set: Test agent exposure for 1, 3, 6, 8 and 10 days, followed by a seven day recovery time with control medium. Both sets of plates were fixed (10% formalin in PBS) and stained (0.02% crystal violet) at the end of the timed exposures. Test concentrations for cytochalasin B were 1, 0.1 and 0.01 µg/ml, and a negative medium control was included. Fresh medium and drug were supplied 3 times per week.
In this Table, "M" indicates Migration Grade, wherein - = no migration; +1 = minimal; +2 = mild; +3 = moderate; and +4 = marked (maximum density; limit of cell contact inhibition) migration of vascular smooth muscle cells into the cleared area adjacent to the scratch. In this Table, "T" denotes a morphological Toxicity Grade, wherein - = no toxicity; +1 = minimal; +2 = mild; +3 = moderate; and +4 = marked toxicity. The migration results are expressed as "Grade in the Cleared Area of the Well / Grade in an Undisturbed Region of the Well." The toxicity values represent a grade for all cells in each well.

[6] = 7-day Recovery Post Exposure, 0.01 µg/mL, Day 1
[7] = 7-day Recovery Post Exposure, 0.01 µg/mL, Day 3
[8] = 7-day Recovery Post Exposure, 0.01 µg/mL, Day 6
[9] = 7-day Recovery Post Exposure, 0.01 µg/mL, Day 8
[10] = 7-day Recovery Post Exposure, 0.01 µg/mL, Day 10
[11] = 7-day Recovery Post Exposure, 0.1 µg/mL, Day 1
[12] = 7-day Recovery Post Exposure, 0.1 µg/mL, Day 3
[13] = 7-day Recovery Post Exposure, 0.1 µg/mL, Day 6
[14] = 7-day Recovery Post Exposure, 0.1 µg/mL, Day 8
[15] = 7-day Recovery Post Exposure, 0.1 µg/mL, Day 10
[16] = 7-day Recovery Post Exposure, 1.0 µg/mL, Day 1
[17] = 7-day Recovery Post Exposure, 1.0 µg/mL, Day 3
[18] = 7-day Recovery Post Exposure, 1.0 µg/mL, Day 6
[19] = 7-day Recovery Post Exposure, 1.0 µg/mL, Day 8
[20] = 7-day Recovery Post Exposure, 1.0 µg/mL, Day 10
[21] = Continuous Exposure, 0.01 µg/mL, Day 1
[22] = Continuous Exposure, 0.01 µg/mL, Day 3
[23] = Continuous Exposure, 0.01 µg/mL, Day 6
[24] = Continuous Exposure, 0.01 µg/mL, Day 8
[25] = Continuous Exposure, 0.01 µg/mL, Day 10
[26] = Continuous Exposure, 0.1 µg/mL, Day 1
[27] = Continuous Exposure, 0.1 µg/mL, Day 3
[28] = Continuous Exposure, 0.1 µg/mL, Day 6
[29] = Continuous Exposure, 0.1 µg/mL, Day 8
[30] = Continuous Exposure, 0.1 µg/mL, Day 10
[31] = Continuous Exposure, 1.0 µg/mL, Day 1
[32] = Continuous Exposure, 1.0 µg/mL, Day 3
[33] = Continuous Exposure, 1.0 µg/mL, Day 6
[34] = Continuous Exposure, 1.0 µg/mL, Day 8
[35] = Continuous Exposure, 1.0 µg/mL, Day 10

## CC/C(=C(\c1ccccc1)c1ccc(OCCN(C)C)cc1)c1ccccc1 [tamoxifen, trans-2-[4-(1,2-diphenyl-1-butenyl)phenoxy]-N,N-dimethylethylamine]
[1]
  fold induction at 10 µM: ~10
[2]
  concentrations that did not affect the rate of proliferation: below 10 µM
[3]
  MCC at 96 h: > 33 µM

## cytochalasin B
[4]
  lumen area in the test region compared to the normal control segment of the same artery: approximately two times
  luminal area compared to arteries treated with other test agents or controls: larger luminal area
  toxicity to the vascular smooth muscle cells: appeared to be toxic
[5]; 0.1 µg/ml, even after 10 days of continuous exposure
  ability to migrate following removal of the therapeutic agent (grade): +3 to +4
[5]; 0.1 µg/ml, summary of Table 1
  migration of vascular smooth muscle cells into the cleared area adjacent to the scratch (grade): +1 to +2
[5]; [6]
  Migration Grade in an Undisturbed Region of the Well: +4
  Migration Grade in the Cleared Area of the Well: +3
[5]; [7]
  Migration Grade in an Undisturbed Region of the Well: +4
  Migration Grade in the Cleared Area of the Well: +3
[5]; [8]
  Migration Grade in an Undisturbed Region of the Well: +4/+4
  Migration Grade in the Cleared Area of the Well: +4/+4
[5]; [9]
  Migration Grade in an Undisturbed Region of the Well: +4/+4
  Migration Grade in the Cleared Area of the Well: +4/+4
[5]; [10]
  Migration Grade in an Undisturbed Region of the Well: +4/+4
  Migration Grade in the Cleared Area of the Well: +4/+4
[5]; [11]
  Migration Grade in an Undisturbed Region of the Well: +4
  Migration Grade in the Cleared Area of the Well: +3
[5]; [12]
  Migration Grade in an Undisturbed Region of the Well: +4
  Migration Grade in the Cleared Area of the Well: +3
[5]; [13]
  Migration Grade in an Undisturbed Region of the Well: +4
  Migration Grade in the Cleared Area of the Well: +3
[5]; [14]
  Migration Grade in an Undisturbed Region of the Well: +4
  Migration Grade in the Cleared Area of the Well: +3
[5]; [15]
  Migration Grade in an Undisturbed Region of the Well: +4/+4
  Migration Grade in the Cleared Area of the Well: +4/+4
[5]; [16]
  Migration Grade in an Undisturbed Region of the Well: +3
  Migration Grade in the Cleared Area of the Well: +2
[5]; [17]
  Migration Grade in an Undisturbed Region of the Well: +3
  Migration Grade in the Cleared Area of the Well: +2
[5]; [18]
  Migration Grade in an Undisturbed Region of the Well: +3
  Migration Grade in the Cleared Area of the Well: +2
[5]; [19]
  Migration Grade in an Undisturbed Region of the Well: +3
  Migration Grade in the Cleared Area of the Well: +2
[5]; [20]
  Migration Grade in an Undisturbed Region of the Well: +3
  Migration Grade in the Cleared Area of the Well: +2
[5]; [21]
  Migration Grade in an Undisturbed Region of the Well: +3
  Migration Grade in the Cleared Area of the Well: +1
[5]; [22]
  Migration Grade in an Undisturbed Region of the Well: +4
  Migration Grade in the Cleared Area of the Well: +3
[5]; [23]
  Migration Grade in an Undisturbed Region of the Well: +4
  Migration Grade in the Cleared Area of the Well: +3
[5]; [24]
  Migration Grade in an Undisturbed Region of the Well: +4
  Migration Grade in the Cleared Area of the Well: +3
[5]; [25]
  Migration Grade in an Undisturbed Region of the Well: +4
  Migration Grade in the Cleared Area of the Well: +3
[5]; [26]
  Migration Grade in an Undisturbed Region of the Well: +3
  Migration Grade in the Cleared Area of the Well: +1
[5]; [27]
  Migration Grade in an Undisturbed Region of the Well: +4
  Migration Grade in the Cleared Area of the Well: +1
[5]; [28]
  Migration Grade in an Undisturbed Region of the Well: +4
  Migration Grade in the Cleared Area of the Well: +2
[5]; [29]
  Migration Grade in an Undisturbed Region of the Well: +4
  Migration Grade in the Cleared Area of the Well: +2
[5]; [30]
  Migration Grade in an Undisturbed Region of the Well: +4
  Migration Grade in the Cleared Area of the Well: +2
[5]; [31]
  Migration Grade in an Undisturbed Region of the Well: +2
  Migration Grade in the Cleared Area of the Well: -
[5]; [32]
  Migration Grade in an Undisturbed Region of the Well: +2
  Migration Grade in the Cleared Area of the Well: -
[5]; [33]
  Migration Grade in an Undisturbed Region of the Well: +2
  Migration Grade in the Cleared Area of the Well: -
[5]; [34]
  Migration Grade in an Undisturbed Region of the Well: +2
  Migration Grade in the Cleared Area of the Well: -
[5]; [35]
  Migration Grade in an Undisturbed Region of the Well: +2
  Migration Grade in the Cleared Area of the Well: -
